Test results reported in US8574865B2, “Methods and assays for identifying compounds that modulate protein-protein interactions” (Sanofi, priority 2007, dated 2013).
Entries after “also recorded” stand apart in the source; their conditions may differ.

Columns and labels:
ADRB2 = target: T1, ADRB2 (Homo sapiens, UniProt P07550); assay: GPCR Per-Luc assay, HEK293 cells stably expressing Arr-luc234V233 and transiently transfected with ADRB2-TEV; assay type: cell-based; details: different concentrations, two hours
T1 construct: expressed in transfected cells

[1] = tested on: Endogenous receptor EDG in HEK293 cells; assay: FLIPR and cAMP assays; details: HEK293 endogenous EDG receptors
V2 vasopressin receptor = target: T2, V2 vasopressin receptor (Homo sapiens, UniProt P30518); assay: GPCR Per-Luc assay, HEK293 cells stably expressing Arr-luc234V233 and transfected with V2-TEV; assay type: cell-based; details: different concentrations, two hours
T2 construct: expressed in transfected cells; host or cells: HEK293 stably expressing Arr-luc234V233
T2 sequence (P30518 whole entry): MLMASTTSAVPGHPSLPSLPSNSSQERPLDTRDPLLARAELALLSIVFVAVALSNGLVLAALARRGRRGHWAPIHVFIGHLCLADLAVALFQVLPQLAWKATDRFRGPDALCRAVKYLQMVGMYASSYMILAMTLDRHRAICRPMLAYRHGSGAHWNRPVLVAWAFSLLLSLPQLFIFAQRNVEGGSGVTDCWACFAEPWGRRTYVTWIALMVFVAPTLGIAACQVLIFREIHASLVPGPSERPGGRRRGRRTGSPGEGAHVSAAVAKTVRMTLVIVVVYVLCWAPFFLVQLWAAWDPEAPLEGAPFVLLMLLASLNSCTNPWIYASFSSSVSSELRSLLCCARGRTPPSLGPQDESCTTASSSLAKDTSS
Description: HEK cells stably transfected with an arrestin/permuted luciferase construct were transiently transfected with a V2-TEV construct and induced with the agonist, 8AVP, arginine vasopressin (left graph).
Bright-GLO™ luciferase reagent was added to cells.

T1 sequence (P07550 whole entry): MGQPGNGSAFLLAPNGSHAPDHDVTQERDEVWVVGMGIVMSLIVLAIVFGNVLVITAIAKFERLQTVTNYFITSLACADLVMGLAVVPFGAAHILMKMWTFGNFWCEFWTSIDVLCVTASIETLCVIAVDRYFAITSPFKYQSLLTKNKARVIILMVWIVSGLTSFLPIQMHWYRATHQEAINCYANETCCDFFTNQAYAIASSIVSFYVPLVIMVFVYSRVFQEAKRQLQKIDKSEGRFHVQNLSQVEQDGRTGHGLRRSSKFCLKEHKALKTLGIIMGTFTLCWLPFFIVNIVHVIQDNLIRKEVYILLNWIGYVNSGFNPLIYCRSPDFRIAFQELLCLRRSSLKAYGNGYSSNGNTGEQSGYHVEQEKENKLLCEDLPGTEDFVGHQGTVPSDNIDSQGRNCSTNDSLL

SMILES | luciferase activity, compound alone (ADRB2) | signal in FLIPR and cAMP assays [1] | luciferase activity (β arrestin recruitment to V2) (V2 vasopressin receptor)
CCCCCCCCCCCCC/C=C/[C@@H](O)[C@@H](N)COP(=O)(O)O [S1P, sphingosine-1-phosphate] | did not affect the luciferase activity | did produce positive signals | –
CCOc1ccc2c(c1)C1(CCC(OCCN3CCOCC3)CC1)C(=O)N2S(=O)(=O)c1ccc(C(=O)NC(C)(C)C)cc1OC (stereo not drawn) [SR121463] | – | – | increasing levels of luminescence were observed with increasing amounts; also recorded: induced a G protein-independent, arrestin-dependent signal
